Reference: patent publication US20250144049A1, “METHODS, COMPOSITIONS, AND USES RELATED TO THE TREATMENT AND PREVENTION OF LEIGH SYNDROME” (Stealth BioTherapeutics Inc., priority 2023, published 2025)

Test: Compound 4 pharmacokinetics and tissue exposure after five daily subcutaneous doses
Type: in vivo, C57BL/6 mice
Procedure: Study design details: • Animals were allowed to acclimate to the test facility for at least two days prior to the beginning of the study. • Study animals were male C57BL/6 mice weighing approximately 18-25 grams each. • Fasting was not required for the study. • Body weights were recorded prior to dose administration. The volume of each dose delivered (mL/kg) was based on each individual animal's body weight. • This was a multiple dose serial PK dosed subcutaneously once daily over 5 days. Compound 4 was administered to two groups: Group 1 at 60 mg/kg and Group 2 at 180 mg/kg (6 and 18 mg/mL, 15% Kolliphor ELP in PBS, 10 mL/kg; N=3/group). Serial PK timepoints were collected following the 5th and final dose.
Sample collection details: • Serial blood samples were collected via tail vein snip. • Blood samples were collected into tubes with anticoagulant. Tubes were stored on wet ice until processed to plasma by centrifugation (3500 rpm at 5° C. for 10 minutes) within 20 minutes of collection. Sample aliquots of 20 μL were transferred into individual uniquely labeled matrix tubes and stored at nominal −80° C. until transferred to analytical chemistry for analysis. • Immediately following each terminal blood collection for all groups, animals were sacrificed and perfused with cold PBS. Heart and brain tissues were collected. • Perfusion methodology: The chest was opened lengthwise using scissors to expose the thoracic organs. A scalpel was used to cut a small hole into the left ventricle just large enough to insert a cannula tip. The cannula was attached to an appropriately sized tubing and syringe prefilled with cold PBS and primed to remove any air. The tip of the cannula was inserted into the left ventricle and directed into the ascending aorta. Hemostats were used to help keep the cannula in place during perfusion. A second hole was made in the right atrium to allow for the escape of fluid during the return circulation. The syringe attached to the cannula was manually pushed or placed into a pump programmed to infuse at 10 mL/min. Animals were perfused for a minimum of 3 minutes or more if needed (until the exiting fluid was clear).
• N=3/group; • Collections relative to the final dose: • Plasma: 60 mg/kg at 2 and 24 hr, 180 mg/kg at predose, 2, 8, and 24 hr • Heart and Brain: 24 hr (terminal, PBS-perfused); • RGA 2 bioanalysis.
• N=3/timepoint; • Collections relative to the final dose: • Plasma: 0.5, 2, 8, and 24 hr (terminal) • Heart and Brain: 0.5, 2, 8, and 24 hr (terminal, PBS-perfused) • RGA 2 bioanalysis.

[1] = male, C57BL/6, mouse, in vivo, sc, 60 mg/kg

Work on `CC1=C(C)C(=O)C(CC[C@](C)(O)CCCCCCCCC(F)(F)F)=C(C)C1=O` [Compound 4] yielded a time to steady-state (male, C57BL/6, mouse, in vivo, sc) of at most 5 days, an AUClast/Dose [1] of 257 kg·ng·h/mL/mg and a Cmax/Dose [1] of 24.0 kg·ng/mL/mg. For the same compound, the AUClast/Dose (male, C57BL/6, mouse, in vivo, sc, 180 mg/kg) was 273 kg·ng·h/mL/mg, the C24/Dose (male, C57BL/6, mouse, in vivo, sc, 180 mg/kg, 24 h) was 1.48 kg·ng/mL/mg and the “concentrations in heart versus brain” value (mouse tissue after 5 days) was “Similar”. The “C24 (trough) tissue exposure versus dose” value (mouse, in vivo) was “approximately proportional to dose”.
